Source: US20110143948A1, “MOLECULAR SIGNATURES AND BIOMARKERS ASSOCIATED WITH MELANOMA AND METHODS OF USE THEREOF” (priority 2008, published 2011)

Test system: ncRNAs (SEQ ID NO 28-89)
Assay: ncRNA arrays of melanocytes, keratinocytes, normal skin, melanoma cell lines and patient samples
Set-up: species or system human
Settings: for ncRNA array expression, patient 2: melanoma patient 2 sample compared to normal skin; for ncRNA array expression, patient 3: melanoma patient 3 sample compared to normal skin; for ncRNA array expression, patient 4: melanoma patient 4 sample compared to normal skin; for ncRNA array expression, patient 5: melanoma patient 5 sample compared to normal skin; for ncRNA array expression, patient 6: melanoma patient 6 sample compared to normal skin; for ncRNA array expression, patient 7: melanoma patient 7 sample compared to normal skin; for ncRNA array expression, patient 8: melanoma patient 8 sample compared to normal skin; for ncRNA array expression, patient 9: melanoma patient 9 sample compared to normal skin; for ncRNA array expression, patient 10: melanoma patient 10 sample compared to normal skin; for ncRNA array expression, patient 19: melanoma patient 19 sample compared to normal skin; for ncRNA array expression, patient 20: melanoma patient 20 sample compared to normal skin; for ncRNA array expression, patient 21: melanoma patient 21 sample compared to normal skin; for ncRNA array expression, patient 22: melanoma patient 22 sample compared to normal skin; for ncRNA array expression, patient 23: melanoma patient 23 sample compared to normal skin; for ncRNA array expression, patient 24: melanoma patient 24 sample compared to normal skin; for ncRNA array expression, patient 25: melanoma patient 25 sample compared to normal skin; for ncRNA array expression, patient 26: melanoma patient 26 sample compared to normal skin; for ncRNA array expression, patient 27: melanoma patient 27 sample compared to normal skin; for ncRNA array expression, patient 28: melanoma patient 28 sample compared to normal skin; for ncRNA array expression, patient 29: melanoma patient 29 sample compared to normal skin; for ncRNA array expression, patient 30: melanoma patient 30 sample compared to normal skin
Summary of the method: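 Total RNA from melanocytes, keratinocytes, normal human skin, melanoma cell lines and melanoma patient samples was profiled on an array of >10,000 putative (>200 nt) human and mouse ncRNAs plus RefSeq mRNA probes. Expression was compared with melanocytes or normal skin, keratinocyte signatures were subtracted, and hits were validated by qRT-PCR and Northern blot.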

| Substance | ncRNA array expression, patient 2 | ncRNA array expression, patient 3 | ncRNA array expression, patient 4 | ncRNA array expression, patient 5 | ncRNA array expression, patient 6 | ncRNA array expression, patient 7 | ncRNA array expression, patient 8 | ncRNA array expression, patient 9 | ncRNA array expression, patient 10 | ncRNA array expression, patient 19 | ncRNA array expression, patient 20 | ncRNA array expression, patient 21 | ncRNA array expression, patient 22 | ncRNA array expression, patient 23 | ncRNA array expression, patient 24 | ncRNA array expression, patient 25 | ncRNA array expression, patient 26 | ncRNA array expression, patient 27 | ncRNA array expression, patient 28 | ncRNA array expression, patient 29 | further results |
| --- | --- | --- | --- | --- | --- | --- | --- | --- | --- | --- | --- | --- | --- | --- | --- | --- | --- | --- | --- | --- | --- |
| SEQ ID NO 48 (ACTTATATTCAGAGCATGTGGATTGGGACTCTGAAGAACAACTTTATGGTGGACACCTTC; listed as DNA, chemistry not given here; listed as Homo sapiens) | 0.9515 | 3.672 | 3.353 | 0.2362 | −0.1733 | 0.648 | 3.309 | −0.2759 | 2.286 | 3.38 | 1.713 | 1.144 | −0.4681 | −0.4589 | 2.492 | 4.7 | 2.981 | 4.712 | 0.2102 | 0.1927 | ncRNA array expression, patient 30: −0.334 |
| SEQ ID NO 89 (GGACACAGAGAGTCATGCACCAGCCCAGTGAGAACCAATTCAGAGCCAAATGCCAAACCC; listed as DNA, chemistry not given here; listed as Homo sapiens) | −1.09 | −1.2821 | −1.434 | −1.049 | −0.6535 | −0.5162 | −1.137 | −1.442 | −1.643 | −0.5304 | −0.7949 | −1.104 | −0.9143 | −0.3405 | −0.9409 | −1.675 | −1.6 | −0.9956 | −0.9677 | −1.266 | ncRNA array expression, patient 30: 0.7591 |
| SEQ ID NO 52 (TTTTCTTAGTCTTTTTACTTTTTCCATTATATTCTTTGATATATTTGAGAAAATGGCTTG; listed as DNA, chemistry not given here; listed as Homo sapiens) | 2.853 | 1.986 | 3.663 | 1.552 | 0.7809 | 0.9779 | 2.426 | 0.8678 | 0.7332 | 0.9835 | −0.5729 | 0.7286 | −0.2277 | −0.706 | −0.4016 | 3.265 | 3.428 | 0.4479 | 2.064 | 1.478 | ncRNA array expression, patient 30: −0.5811 |
| SEQ ID NO 73 (AAAGTTTCCCCATAATGCTCTTGCAAGTGAATATGAGCTGTGGTTTTTGCAGTGGAGTTA; listed as DNA, chemistry not given here; listed as Homo sapiens) | −0.1172 | 1.314 | 2.477 | −0.06181 | 1.506 | −0.179 | 1.518 | 1.007 | 1.767 | 3.505 | 0.6301 | 2.332 | 0.9622 | 0.07892 | 0.3377 | 1.57 | 1.308 | 0.1447 | 2.166 | 0.9153 | ncRNA array expression, patient 30: −0.2612 |
| SEQ ID NO 47 (GTATTTGTAATATTTGATTTGCTTTTAGCAGAGAAAACAATAAAAGAATCCAGGAAAAGT; listed as DNA, chemistry not given here; listed as Homo sapiens) | −2.442 | −2.494 | −2.265 | −2.234 | −2.076 | −2.368 | −1.927 | −2.484 | −1.685 | −2.485 | −2.495 | −2.249 | −2.41 | −2.401 | −2.489 | −2.453 | −2.486 | −2.489 | −2.481 | −2.234 | ncRNA array expression, patient 30: −1.529 |
| SEQ ID NO 72 (AATTACATATATTTAGCAGGATTTTTATTTGCCGTGATATATAGGATAATTTAGTCTTTG; listed as DNA, chemistry not given here; listed as Homo sapiens) | 2.217 | 2.382 | 2.566 | 1.096 | 2.336 | 2.665 | 3.323 | −0.6629 | 2.245 | 0.2985 | 1.011 | 0.6264 | 0.5499 | 0.09129 | 2.832 | 3.664 | 3.29 | 2.308 | 1.044 | 2.583 | ncRNA array expression, patient 30: −1.3285 |
